Results on 13 compounds are retold here after PubChem BioAssay (NCI).

Values joined by “and” are separate entries in the source; they are usually repeats but may differ in a detail not shown here. Equal values may be shown once.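 Step 1: Grow cells in 96-well plates. Step 2: Expose to compound for 48 hours at 5 concentrations. Step 3: Interpolate endpoints linearly; if unreached, use highest concentration. Abbreviation: GI50, concentration required for 50% inhibition of growth. At the TGI there is no net growth.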 Where a SMILES comes first, the peptide text is derived from it.

Test systems include SNB-75 CNS; T-47D breast; CAKI-1 renal; BT-549 breast; A498 renal; 786-0 renal; HCT-116 colon; MDA-MB-231 breast; MDA-MB-435; HOP-18 NSCLC; XF 498 CNS; SN12K1 renal; P388/ADR leukemia; KM20L2 colon; P388 leukemia; DMS 114 small cell lung; SR leukemia.
Common to all, as to test: NCI tumour cell line growth inhibition, 48 h

As to `CC1=CC(C2/C(=N/O)C=C(C)CC2(C)C)C(O)C(C)(C)C1` (configuration not stated), the TGI amounted to 29.2 µM in the assay on SNB-75 CNS; 28.1 µM with T-47D breast; 28.2 µM with CAKI-1 renal; 32.8 µM in the assay on BT-549 breast; 33.3 µM with A498 renal; 31.8 µM with 786-0 renal. Moreover, the results for the TGI with HCT-116 colon, in the assay on MDA-MB-231 breast and with MDA-MB-435 were 29.3 µM, 31.6 µM and 31.2 µM, respectively.

On to `CCOC(=O)c1csc(NC(=O)C(C)N2CCCCC2)n1` (configuration not stated), for which the TGI in the assay with SNB-75 CNS, in the assay with T-47D breast, in the assay with CAKI-1 renal, in the assay with A498 renal, in the assay with MDA-MB-231 breast and in the assay on MDA-MB-435 was over 100 µM in each case.

Take `OCC1OC(n2cnc3c2NC=NC[C@H]3O)C(O)C1O` (some centres not stated): the TGI with HOP-18 NSCLC, in the assay with SNB-75 CNS, with XF 498 CNS, with CAKI-1 renal, in the assay on A498 renal and in the assay with SN12K1 renal was over 450 µM throughout. Moreover, the TGI in the assay on P388/ADR leukemia, in the assay on KM20L2 colon, in the assay on HCT-116 colon, with P388 leukemia and with DMS 114 small cell lung was over 450 µM throughout.

In the case of `COC(=O)C1OC(Oc2cc(O)c3c(=O)cc(-c4ccc(O)cc4)oc3c2)C(O)C(O)C1O` (configuration not stated), the TGI with HOP-18 NSCLC, in the assay with SNB-75 CNS, with XF 498 CNS, in the assay on CAKI-1 renal, in the assay with A498 renal and with SN12K1 renal was over 100 µM in each case. Further, the TGI in the assay with P388/ADR leukemia, in the assay with KM20L2 colon, with HCT-116 colon, in the assay with P388 leukemia and in the assay with DMS 114 small cell lung was over 100 µM each time.

On to `CN(C)C(=O)NCCN1CCCCCc2ccccc21`, for which the TGI with T-47D breast, in the assay with CAKI-1 renal, in the assay with A498 renal, with HCT-116 colon, with SR leukemia and in the assay with MDA-MB-231 breast was over 100 µM in each case. For the same compound, the TGI in the assay on MDA-MB-435 is over 100 µM.

For `COc1ccnc2c1C(=O)c1nc3ccccc3c3ccnc-2c13`, the TGI in the assay on SNB-75 CNS came out at 0.589 µM; with T-47D breast, 1.34 µM; with CAKI-1 renal, 0.6 µM; in the assay on BT-549 breast it was 1.44 µM; with A498 renal it was 0.0803 µM; in the assay on HCT-116 colon it was 1.03 µM. For the same compound, the TGI in the assay with MDA-MB-231 breast is 3.87 µM; in the assay on MDA-MB-435, 1.52 µM.

With `O=C1NC(=O)C(CCO)(c2ccccc2)C(=O)N1`, the TGI with HOP-18 NSCLC, with SNB-75 CNS, in the assay with XF 498 CNS, with A498 renal, with SN12K1 renal and in the assay with KM20L2 colon was over 100 µM in each case. The TGI in the assay on HCT-116 colon, in the assay with P388 leukemia and in the assay with DMS 114 small cell lung was over 100 µM throughout.

Consider `O=C(CC(c1ccccc1)N1CCCCC1)c1ccccc1` (configuration not stated), for which the TGI in the assay with SNB-75 CNS was determined as 31.4 µM; in the assay on T-47D breast, 37.6 µM; with CAKI-1 renal it was 30.3 µM; in the assay with BT-549 breast, 34.8 µM; in the assay on A498 renal it was 29.3 µM; in the assay with 786-0 renal, 25.9 µM. In addition, the TGI in the assay on HCT-116 colon stood at 19.9 µM; in the assay on SR leukemia it was 6.15 µM; in the assay on MDA-MB-231 breast it was 34.6 µM; in the assay on MDA-MB-435, 27.4 µM.

Consider `C=CCn1c(=O)n(CC=C)c(=O)n(CC=C)c1=O`, for which the TGI in the assay with HOP-18 NSCLC, in the assay with A498 renal, with KM20L2 colon, with 786-0 renal, in the assay on HCT-116 colon and in the assay with DMS 114 small cell lung was over 100 µM throughout.

Take `O=c1c(-c2ccccc2)c(SCCCN2CCN(c3cccc(Cl)c3)CC2)n(-c2ccccc2)c(=S)n1-c1ccccc1`: the TGI with SNB-75 CNS, in the assay with CAKI-1 renal, in the assay on BT-549 breast, in the assay on A498 renal, with SR leukemia and in the assay on MDA-MB-231 breast was over 100 µM throughout. The compound further had a TGI with MDA-MB-435 of 42.4 µM.

For the compound `C=C1C(=O)O[C@H]2[C@H]1[C@@H](OC(=O)C=C(C)C)CC1=C[C@@H](C[C@@]3(C)O[C@@H]23)OC1=O`, the TGI with HOP-18 NSCLC is 10.2 µM; in the assay with SNB-75 CNS it was 33.3 µM; in the assay on XF 498 CNS it was 3.79 µM and 4.51 µM; in the assay with CAKI-1 renal, 9.11 µM; in the assay on A498 renal, 26.5 µM and 39.2 µM; with SN12K1 renal, 21.3 µM and 35.5 µM. Moreover, the TGI in the assay with P388/ADR leukemia is 1120 µM and 1250 µM; in the assay with HCT-116 colon, 16.5 µM; in the assay on P388 leukemia, 0.914 µM. The results for the GI50 with XF 498 CNS, in the assay on A498 renal and in the assay with SN12K1 renal were 2.4 µM, 21.3 µM and 17.6 µM, respectively.

Consider `CCC(C)C(NC(=O)C(CCCCN)NC(=O)C(NC(=O)C(CCC(N)=O)NC(=O)C(N)CCCNC(=N)N)C(C)CC)C(=O)NC(Cc1c[nH]c2ccccc12)C(=O)NC(Cc1ccccc1)C(=O)NC(CCC(N)=O)C(=O)NC(CC(N)=O)C(=O)NC(CCCNC(=N)N)C(=O)NC(CCCNC(=N)N)C(=O)NC(CCSC)C(=O)NC(CCCCN)C(=O)NC(Cc1c[nH]c2ccccc12)C(=O)NC(CCCCN)C(=O)NC(CCCCN)C(=O)N1CCCC1C(=O)NC(C)C(=O)NC(CCCCN)C(=O)NC(CCCNC(=N)N)C(=O)NC(CCCCN)C(=O)NC(CC(C)C)C(=O)NC(Cc1ccccc1)C(=O)NCC(=O)O` (configuration not stated) (H-RQIKIWFQNRRMKWKKPAKRKLFG-OH; configuration not given here), for which the TGI with SNB-75 CNS, in the assay with CAKI-1 renal, in the assay on BT-549 breast, with 786-0 renal, in the assay with HCT-116 colon and in the assay with SR leukemia was over 25 µM in each case. Also, the TGI with MDA-MB-231 breast and with MDA-MB-435 was over 25 µM each time.

For the compound `CCCCN1C=CN2c3nc4cc(C)c(C)cc4n3C(C(=O)OC)=C(C(=O)OC)C12` (configuration not stated), the TGI in the assay on HOP-18 NSCLC, in the assay on SNB-75 CNS, in the assay with XF 498 CNS, in the assay with CAKI-1 renal, in the assay with KM20L2 colon and in the assay on HCT-116 colon was over 100 µM in each case. Moreover, the TGI in the assay on SR leukemia and in the assay with DMS 114 small cell lung was over 100 µM throughout.
